Measurements as given in ChEMBL document CHEMBL4020788, “Synthesis, SAR and molecular docking studies of benzo[d]thiazole-hydrazones as potential antibacterial and antifungal agents” (2017).
Values after ≈ are worked out from the molar mass of the structure shown. Active and inactive are the calls of the source. No cut-off for these calls is given here.

Experiments:
Format in all cases: functional
Staphylococcus aureus [1] = assay: Antibacterial activity against Staphylococcus aureus at 25 ug/ml after 24 hrs by agar well diffusion method; conditions: read-out: DIZ
Staphylococcus aureus [2] = assay: Antibacterial activity against Staphylococcus aureus at 50 ug/ml after 24 hrs by agar well diffusion method; conditions: read-out: DIZ
Staphylococcus aureus [3] = assay: Antibacterial activity against Staphylococcus aureus at 75 ug/ml after 24 hrs by agar well diffusion method; conditions: read-out: DIZ
Staphylococcus aureus [4] = assay: Antibacterial activity against Staphylococcus aureus at 100 ug/ml after 24 hrs by agar well diffusion method; conditions: read-out: DIZ
Bacillus subtilis [5] = assay: Antibacterial activity against Bacillus subtilis at 25 ug/ml after 24 hrs by agar well diffusion method; conditions: read-out: DIZ
Bacillus subtilis [6] = assay: Antibacterial activity against Bacillus subtilis at 50 ug/ml after 24 hrs by agar well diffusion method; conditions: read-out: DIZ
Bacillus subtilis [7] = assay: Antibacterial activity against Bacillus subtilis at 75 ug/ml after 24 hrs by agar well diffusion method; conditions: read-out: DIZ
Bacillus subtilis [8] = assay: Antibacterial activity against Bacillus subtilis at 100 ug/ml after 24 hrs by agar well diffusion method; conditions: read-out: DIZ
Escherichia coli [9] = assay: Antibacterial activity against Escherichia coli at 25 ug/ml after 24 hrs by agar well diffusion method; conditions: read-out: DIZ
Escherichia coli [10] = assay: Antibacterial activity against Escherichia coli at 50 ug/ml after 24 hrs by agar well diffusion method; conditions: read-out: DIZ
Escherichia coli [11] = assay: Antibacterial activity against Escherichia coli at 75 ug/ml after 24 hrs by agar well diffusion method; conditions: read-out: DIZ
Escherichia coli [12] = assay: Antibacterial activity against Escherichia coli at 100 ug/ml after 24 hrs by agar well diffusion method; conditions: read-out: DIZ
Klebsiella pneumoniae [13] = assay: Antibacterial activity against Klebsiella pneumoniae at 25 ug/ml after 24 hrs by agar well diffusion method; conditions: read-out: DIZ
Klebsiella pneumoniae [14] = assay: Antibacterial activity against Klebsiella pneumoniae at 50 ug/ml after 24 hrs by agar well diffusion method; conditions: read-out: DIZ
Klebsiella pneumoniae [15] = assay: Antibacterial activity against Klebsiella pneumoniae at 75 ug/ml after 24 hrs by agar well diffusion method; conditions: read-out: DIZ
Klebsiella pneumoniae [16] = assay: Antibacterial activity against Klebsiella pneumoniae at 100 ug/ml after 24 hrs by agar well diffusion method; conditions: read-out: DIZ
Staphylococcus aureus [17] = assay: Antibacterial activity against methicillin resistant Staphylococcus aureus MRSA090 at 25 ug/ml after 24 hrs by agar well diffusion method; conditions: MRSA090, 24 h, read-out: DIZ
Staphylococcus aureus [18] = assay: Antibacterial activity against methicillin resistant Staphylococcus aureus MRSA090 at 50 ug/ml after 24 hrs by agar well diffusion method; conditions: MRSA090, 24 h, read-out: DIZ
Staphylococcus aureus [19] = assay: Antibacterial activity against methicillin resistant Staphylococcus aureus MRSA090 at 75 ug/ml after 24 hrs by agar well diffusion method; conditions: MRSA090, 24 h, read-out: DIZ
Staphylococcus aureus [20] = assay: Antibacterial activity against methicillin resistant Staphylococcus aureus MRSA090 at 100 ug/ml after 24 hrs by agar well diffusion method; conditions: MRSA090, 24 h, read-out: DIZ
Aspergillus niger [21] = assay: Antifungal activity against Aspergillus niger at 25 ug/ml after 48 hrs by agar well diffusion method; conditions: for zone of inhibition at 25 µg/mL: read-out: DIZ
Aspergillus niger [22] = assay: Antifungal activity against Aspergillus niger at 50 ug/ml after 48 hrs by agar well diffusion method; conditions: for zone of inhibition at 50 µg/mL: read-out: DIZ
Aspergillus niger [23] = assay: Antifungal activity against Aspergillus niger at 75 ug/ml after 48 hrs by agar well diffusion method; conditions: for zone of inhibition at 75 µg/mL: read-out: DIZ
Aspergillus niger [24] = assay: Antifungal activity against Aspergillus niger at 100 ug/ml after 48 hrs by agar well diffusion method; conditions: for zone of inhibition at 100 µg/mL: read-out: DIZ
Fusarium verticillioides [25] = assay: Antifungal activity against Fusarium moniliforme at 25 ug/ml after 48 hrs by agar well diffusion method; conditions: for zone of inhibition at 25 µg/mL: read-out: DIZ
Fusarium verticillioides [26] = assay: Antifungal activity against Fusarium moniliforme at 50 ug/ml after 48 hrs by agar well diffusion method; conditions: for zone of inhibition at 50 µg/mL: read-out: DIZ
Fusarium verticillioides [27] = assay: Antifungal activity against Fusarium moniliforme at 75 ug/ml after 48 hrs by agar well diffusion method; conditions: read-out: DIZ
Fusarium verticillioides [28] = assay: Antifungal activity against Fusarium moniliforme at 100 ug/ml after 48 hrs by agar well diffusion method; conditions: read-out: DIZ
Fusarium oxysporum [29] = assay: Antifungal activity against Fusarium oxysporum at 25 ug/ml after 48 hrs by agar well diffusion method
Fusarium oxysporum [30] = assay: Antifungal activity against Fusarium oxysporum at 50 ug/ml after 48 hrs by agar well diffusion method
Fusarium oxysporum [31] = assay: Antifungal activity against Fusarium oxysporum at 75 ug/ml after 48 hrs by agar well diffusion method
Fusarium oxysporum [32] = assay: Antifungal activity against Fusarium oxysporum at 100 ug/ml after 48 hrs by agar well diffusion method; conditions: for zone of inhibition at 100 µg/mL: read-out: DIZ
Staphylococcus aureus [33] = assay: Antibacterial activity against Staphylococcus aureus incubated for overnight by microdilution method
Bacillus subtilis [34] = assay: Antibacterial activity against Bacillus subtilis incubated for overnight by microdilution method
Escherichia coli [35] = assay: Antibacterial activity against Escherichia coli incubated for overnight by microdilution method
Staphylococcus aureus [36] = assay: Antibacterial activity against methicillin resistant Staphylococcus aureus MRSA090 incubated for overnight by microdilution method
Klebsiella pneumoniae [37] = assay: Antibacterial activity against Klebsiella pneumoniae incubated for overnight by microdilution method
Fusarium verticillioides [38] = assay: Antifungal activity against Fusarium moniliforme after 48 to 72 hrs by microdilution method
Fusarium oxysporum [39] = assay: Antifungal activity against Fusarium oxysporum after 48 to 72 hrs by microdilution method
Aspergillus niger [40] = assay: Antifungal activity against Aspergillus niger after 48 to 72 hrs by microdilution method

SMILES: Cc1cccc2nc(N/N=C/c3ccc(O)cc3)sc12
- zone of inhibition at 25 µg/mL (Staphylococcus aureus [1]): 10 mm
- zone of inhibition at 50 µg/mL (Staphylococcus aureus [2]): 16 mm
- zone of inhibition at 75 µg/mL (Staphylococcus aureus [3]): 20 mm
- zone of inhibition at 100 µg/mL (Staphylococcus aureus [4]): 23 mm
- zone of inhibition at 25 µg/mL (Bacillus subtilis [5]): 11 mm
- zone of inhibition at 50 µg/mL (Bacillus subtilis [6]): 14 mm
- zone of inhibition at 75 µg/mL (Bacillus subtilis [7]): 18 mm
- zone of inhibition at 100 µg/mL (Bacillus subtilis [8]): 21 mm
- zone of inhibition at 25 µg/mL (Escherichia coli [9]): 17 mm
- zone of inhibition at 50 µg/mL (Escherichia coli [10]): 19 mm
- zone of inhibition at 75 µg/mL (Escherichia coli [11]): 22 mm
- zone of inhibition at 100 µg/mL (Escherichia coli [12]): 25 mm
- zone of inhibition at 25 µg/mL (Klebsiella pneumoniae [13]): 14 mm
- zone of inhibition at 50 µg/mL (Klebsiella pneumoniae [14]): 17 mm
- zone of inhibition at 75 µg/mL (Klebsiella pneumoniae [15]): 22 mm
- zone of inhibition at 100 µg/mL (Klebsiella pneumoniae [16]): 26 mm
- zone of inhibition at 25 µg/mL (Staphylococcus aureus [17]): 14 mm
- zone of inhibition at 50 µg/mL (Staphylococcus aureus [18]): 17 mm
- zone of inhibition at 75 µg/mL (Staphylococcus aureus [19]): 21 mm
- zone of inhibition at 100 µg/mL (Staphylococcus aureus [20]): 24 mm
- diameter of the inhibition zone (DIZ) (Aspergillus niger [21]): inactive
- diameter of the inhibition zone (DIZ) (Aspergillus niger [22]): inactive
- diameter of the inhibition zone (DIZ) (Aspergillus niger [23]): inactive
- diameter of the inhibition zone (DIZ) (Aspergillus niger [24]): inactive
- zone of inhibition at 25 µg/mL (Fusarium verticillioides [25]): 8 mm
- zone of inhibition at 50 µg/mL (Fusarium verticillioides [26]): 10 mm
- zone of inhibition at 75 µg/mL (Fusarium verticillioides [27]): 13 mm
- zone of inhibition at 100 µg/mL (Fusarium verticillioides [28]): 17 mm
- diameter of the inhibition zone (DIZ) (Fusarium oxysporum [29]): inactive
- diameter of the inhibition zone (DIZ) (Fusarium oxysporum [30]): inactive
- diameter of the inhibition zone (DIZ) (Fusarium oxysporum [31]): inactive
- diameter of the inhibition zone (DIZ) (Fusarium oxysporum [32]): inactive
- MIC (Staphylococcus aureus [33]): 28 µg/mL (≈ 98.8 µM)
- MIC (Bacillus subtilis [34]): 26 µg/mL (≈ 91.8 µM)
- MIC (Escherichia coli [35]): 25 µg/mL (≈ 88.2 µM)
- MIC (Staphylococcus aureus [36]): 30 µg/mL (≈ 106 µM)

SMILES: Cc1cccc2nc(N/N=C/c3ccc(O)cc3O)sc12
- zone of inhibition at 25 µg/mL (Staphylococcus aureus [1]): 14 mm
- zone of inhibition at 50 µg/mL (Staphylococcus aureus [2]): 18 mm
- zone of inhibition at 75 µg/mL (Staphylococcus aureus [3]): 23 mm
- zone of inhibition at 100 µg/mL (Staphylococcus aureus [4]): 26 mm
- zone of inhibition at 25 µg/mL (Bacillus subtilis [5]): 12 mm
- zone of inhibition at 50 µg/mL (Bacillus subtilis [6]): 18 mm
- zone of inhibition at 75 µg/mL (Bacillus subtilis [7]): 24 mm
- zone of inhibition at 100 µg/mL (Bacillus subtilis [8]): 28 mm
- zone of inhibition at 25 µg/mL (Escherichia coli [9]): 6 mm
- zone of inhibition at 50 µg/mL (Escherichia coli [10]): 12 mm
- zone of inhibition at 75 µg/mL (Escherichia coli [11]): 17 mm
- zone of inhibition at 100 µg/mL (Escherichia coli [12]): 20 mm
- zone of inhibition at 25 µg/mL (Klebsiella pneumoniae [13]): 12 mm
- zone of inhibition at 50 µg/mL (Klebsiella pneumoniae [14]): 16 mm
- zone of inhibition at 75 µg/mL (Klebsiella pneumoniae [15]): 21 mm
- zone of inhibition at 100 µg/mL (Klebsiella pneumoniae [16]): 25 mm
- zone of inhibition at 25 µg/mL (Staphylococcus aureus [17]): 12 mm
- zone of inhibition at 50 µg/mL (Staphylococcus aureus [18]): 16 mm
- zone of inhibition at 75 µg/mL (Staphylococcus aureus [19]): 20 mm
- zone of inhibition at 100 µg/mL (Staphylococcus aureus [20]): 24 mm
- zone of inhibition at 25 µg/mL (Aspergillus niger [21]): 8 mm
- zone of inhibition at 50 µg/mL (Aspergillus niger [22]): 14 mm
- zone of inhibition at 75 µg/mL (Aspergillus niger [23]): 17 mm
- zone of inhibition at 100 µg/mL (Aspergillus niger [24]): 21 mm
- diameter of the inhibition zone (DIZ) (Fusarium verticillioides [25]): inactive
- diameter of the inhibition zone (DIZ) (Fusarium verticillioides [26]): inactive
- zone of inhibition at 75 µg/mL (Fusarium verticillioides [27]): 10 mm
- zone of inhibition at 100 µg/mL (Fusarium verticillioides [28]): 14 mm
- diameter of the inhibition zone (DIZ) (Fusarium oxysporum [29]): inactive
- diameter of the inhibition zone (DIZ) (Fusarium oxysporum [30]): inactive
- diameter of the inhibition zone (DIZ) (Fusarium oxysporum [31]): inactive
- zone of inhibition at 100 µg/mL (Fusarium oxysporum [32]): 8 mm
- MIC (Klebsiella pneumoniae [37]): 24 µg/mL (≈ 80.2 µM)
- MIC (Staphylococcus aureus [33]): 24 µg/mL (≈ 80.2 µM)
- MIC (Bacillus subtilis [34]): 29 µg/mL (≈ 96.9 µM)
- MIC (Escherichia coli [35]): 33 µg/mL (≈ 110 µM)
- MIC (Staphylococcus aureus [36]): 20 µg/mL (≈ 66.8 µM)
- MIC (Fusarium verticillioides [38]): 25 µg/mL (≈ 83.5 µM)
- MIC (Fusarium oxysporum [39]): 27 µg/mL (≈ 90.2 µM)

SMILES: CC(=O)N1CCN(c2ccc(OCC3COC(Cn4ccnc4)(c4ccc(Cl)cc4Cl)O3)cc2)CC1 (stereo not given) [KETOCONAZOLE]
- zone of inhibition at 25 µg/mL (Aspergillus niger [21]): 24 mm
- zone of inhibition at 50 µg/mL (Aspergillus niger [22]): 28 mm
- zone of inhibition at 75 µg/mL (Aspergillus niger [23]): 34 mm
- zone of inhibition at 100 µg/mL (Aspergillus niger [24]): 37 mm
- zone of inhibition at 25 µg/mL (Fusarium verticillioides [25]): 21 mm
- zone of inhibition at 50 µg/mL (Fusarium verticillioides [26]): 25 mm
- zone of inhibition at 75 µg/mL (Fusarium verticillioides [27]): 31 mm
- zone of inhibition at 100 µg/mL (Fusarium verticillioides [28]): 34 mm
- zone of inhibition at 25 µg/mL (Fusarium oxysporum [29]; read-out: DIZ): 23 mm
- zone of inhibition at 50 µg/mL (Fusarium oxysporum [30]; read-out: DIZ): 22 mm
- zone of inhibition at 75 µg/mL (Fusarium oxysporum [31]; read-out: DIZ): 32 mm
- zone of inhibition at 100 µg/mL (Fusarium oxysporum [32]): 38 mm
- MIC (Aspergillus niger [40]): 28 µg/mL (≈ 52.7 µM)
- MIC (Fusarium verticillioides [38]): 27 µg/mL (≈ 50.8 µM)
- MIC (Fusarium oxysporum [39]): 24 µg/mL (≈ 45.2 µM)
